# Target: T1, human dopamine transporter (hDAT) (Homo sapiens, UniProt Q01959)
# T1 construct: gene SLC6A3
# T1 sequence (Q01959 whole entry): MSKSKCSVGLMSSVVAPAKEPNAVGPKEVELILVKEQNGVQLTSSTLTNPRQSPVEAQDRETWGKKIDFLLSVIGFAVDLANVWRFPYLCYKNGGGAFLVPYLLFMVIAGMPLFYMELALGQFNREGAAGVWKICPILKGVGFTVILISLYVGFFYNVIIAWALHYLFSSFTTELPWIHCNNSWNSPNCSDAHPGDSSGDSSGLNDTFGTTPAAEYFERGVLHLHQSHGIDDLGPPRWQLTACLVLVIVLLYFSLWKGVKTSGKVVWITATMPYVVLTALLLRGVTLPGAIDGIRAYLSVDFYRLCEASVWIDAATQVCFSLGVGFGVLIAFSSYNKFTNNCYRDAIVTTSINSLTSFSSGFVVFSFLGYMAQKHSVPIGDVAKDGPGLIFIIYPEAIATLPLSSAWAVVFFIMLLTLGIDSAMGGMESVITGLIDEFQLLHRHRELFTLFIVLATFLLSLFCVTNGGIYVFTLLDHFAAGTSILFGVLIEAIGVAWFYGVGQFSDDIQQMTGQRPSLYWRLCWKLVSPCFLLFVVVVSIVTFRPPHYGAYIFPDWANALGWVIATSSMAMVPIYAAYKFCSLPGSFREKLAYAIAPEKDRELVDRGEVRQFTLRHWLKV
smiles,measurement,value
"NCCc1ccc(O)c(O)c1 [DA, dopamine]","3H-dopamine uptake kinetics (Km, Vmax) in PAE cells stably expressing hDAT","Michaelis–Menten non-linear regression analysis was performed, providing transporter dopamine affinity (Km) and capacity (Vmax) for each condition"
